The results in this text go back to patent US20240279207A1, “SUBSTITUTED ACYL SULFONAMIDES FOR TREATING CANCER” (The Broad Institute, Inc., priority 2020, published 2024).

Read-outs that look alike come from different tables or passages of the source.

In one assay the test system is LCLC97TM1. Description: LCLC97TM1 proliferation assay. The following applies: read-out: LCLC97TM1 proliferation assay, EC50 [M] (arithmetic mean). The class given is cell-based.
The subject of the next assay is ZR-75-1 cells. Put plainly: ZR-75-1 proliferation assay. The format is cell-based. The following applies: Alamar Blue, read-out: ZR75-1 proliferation assay, EC50 [M] (arithmetic mean). The text has this: (§1) For compound characterization cell survival assays were routinely run in two cell lines. ZR-75-1 is a breast carcinoma cell line containing a focal KAT6A amplification and high KAT6A protein expression. Proliferation of this cell line is inhibited upon treatment with KAT6A inhibitors. As a negative control cell line MDA-MB-436 were used. These cells carry a […] deletion of the KAT6A gene, have a low KAT6A protein expression and are not growth inhibited upon treatment with KAT6A inhibitors.
(§2) For measurements cell lines were plated at the below indicated concentration per […] in 96-well plates in a humidified incubator at 37° C. and 5% CO2.
ZR-75-1 (ATCC, CRL-1500; breast carcinoma); 3000 cells per well; culture medium: RPMI 1640 (Biochrom #FG 1215) medium containing 2.5% FBS (Biochrom #S0615).
(§3) Each sample was prepared as triplicate and rim wells were excluded. Plates were incubated at 37° C. and 5% CO2 for 144 h. Cell viability was measured by adding 10 μL of Alamar Blue Reagent (Invitrogen #DAL 1100) and plates were incubated for 2 h at 37° C. and 5% CO2. Fluorescence was measured at 590 nm wavelength with a Tecan Spark or Victor X3 MTP-Reader (PerkinElmer).
(Resazurin is reduced to fluorescent resorufin, in cell work by metabolically active cells.)

For assay [1], the system named is ESR1 transcription in MVLN cells. Put plainly: MVLN reporter assay: repression of ESR1 transcription (luciferase signal). The class given is cell-based. The following applies: luciferase signal after 24 h, read-out: MVLN reporter assay, IC50 [M] (arithmetic mean). The method in brief:
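To control for cell loss, Alamar Blue (2 h, 530/590 nm) precedes the 24 h luciferase measurement. The reporter is an ERE from the Xenopus vitellogenin A2 gene driving luciferase, stably transfected into ER-expressing MVLN cells; duplicate samples.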
In general terms: A reporter such as luciferase makes a cellular process visible.

Another assay concerns MDA-MB-436 cells. Description: MDA-MB-436 proliferation assay (negative control cell line). The following applies: 144 h, Alamar Blue, read-out: MDA-MB-436 proliferation assay, EC50 [M] (arithmetic mean). The class given is cell-based.
From the text: as §1, §2
MDA-MB-436 (CLS, 300278; breast adenocarcinoma); 3000 cells per well; culture medium: DMEM/Ham's F12 (Biochrom #FG 4815) medium containing 2.5% FBS (Biochrom #S0615).
as §3

Assay [2] deals with T1, Recombinant human His-tagged Kat6a protein (amino acids 194-810) (Homo sapiens, UniProt Q92794).
T1 construct: Kat6a protein (amino acids 194-810); His
Put plainly: Kat6a activity assay (TR-FRET, acetylation of Histone-H4-derived peptide). The settings on record: 60 mins at 22° C., 220 nM H4 peptide, 600 nM Acetyl Coenzyme A, read-out: KAT6A - DPF/HAT domain IC50 [mol/l] (arithmetic mean). The format is biochemical. For orientation: In TR-FRET formats the signal depends on donor and acceptor labels being close together.

Where [3] appears, read: Homo sapiens, LCLC-97TM1, LCLC97TM1.

T1 sequence (Q92794 194-810): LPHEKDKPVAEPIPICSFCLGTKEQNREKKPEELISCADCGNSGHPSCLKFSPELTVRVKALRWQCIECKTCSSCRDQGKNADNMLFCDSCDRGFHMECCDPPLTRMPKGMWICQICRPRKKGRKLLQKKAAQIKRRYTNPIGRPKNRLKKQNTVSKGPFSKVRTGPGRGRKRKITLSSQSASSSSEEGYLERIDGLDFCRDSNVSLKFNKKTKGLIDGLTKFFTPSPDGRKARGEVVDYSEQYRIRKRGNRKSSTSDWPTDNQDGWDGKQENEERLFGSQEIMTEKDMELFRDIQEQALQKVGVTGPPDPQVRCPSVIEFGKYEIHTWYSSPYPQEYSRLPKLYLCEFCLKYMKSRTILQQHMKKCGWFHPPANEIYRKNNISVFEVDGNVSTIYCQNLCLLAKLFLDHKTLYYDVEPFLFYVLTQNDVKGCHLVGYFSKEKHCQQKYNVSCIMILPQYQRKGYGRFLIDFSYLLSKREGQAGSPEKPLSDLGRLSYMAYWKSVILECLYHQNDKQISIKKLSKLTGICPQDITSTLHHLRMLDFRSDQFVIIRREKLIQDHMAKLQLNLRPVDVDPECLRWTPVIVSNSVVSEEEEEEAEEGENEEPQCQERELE

With `CCOc1ccccc1S(=O)(=O)NC(=O)c1cc2c(F)cc(N3CCC3C(C)(C)O)cc2o1` (racemic) [Example 162, N-(2-ethoxybenzene-1-sulfonyl)-4-fluoro-6-[2-(2-hydroxypropan-2-yl)azetidin-1-yl]-1-benzofuran-2-carboxamide (rac)], the EC50 in the assay with LCLC97TM1 (setting [3]) was greater than 2e-05 M; in the assay on ZR-75-1 cells (Homo sapiens, ZR-75-1, 144 h), greater than 2e-05 M; in the assay with MDA-MB-436 cells (Homo sapiens), greater than 2e-05 M. Further, the IC50 was determined as 1.95e-05 M in assay [1] (Homo sapiens, MVLN, 24 h) and 1990 nM in assay [2].
For `CCOc1ccc(CC)cc1S(=O)(=O)NC(=O)c1cc2c(F)cc(N3CC(F)C3)cc2o1` [Example 153, N-(2-ethoxy-5-ethylbenzene-1-sulfonyl)-4-fluoro-6-(3-fluoroazetidin-1-yl)-1-benzofuran-2-carboxamide], the EC50 with LCLC97TM1 (setting [3]) was 1.6e-07 M; in the assay on ZR-75-1 cells (Homo sapiens, ZR-75-1, 144 h), 4.98e-08 M; in the assay on MDA-MB-436 cells (Homo sapiens), greater than 2e-05 M. For the same molecule, the IC50 came out at 4.69e-08 M in assay [1] (Homo sapiens, MVLN, 24 h) and 10.5 nM in assay [2].
In the same order, the values of `CC(C)(C)c1ccc(OCC2CC2)c(S(=O)(=O)NC(=O)c2cc3c(F)cc(N4CCC4)cc3o2)c1` [Example 226, 6-(Azetidin-1-yl)-N-[(5-(tert-butyl)-2-(cyclopropylmethoxy)phenyl)sulfonyl]-4-fluorobenzofuran-2-carboxamide] are 4.63e-08 M, 2.78e-08 M, greater than 2e-05 M, 5.37e-08 M and 1.79 nM.
For `CC(Oc1ccccc1S(=O)(=O)NC(=O)c1cc2c(F)cc(N3CCC3)cc2o1)C(F)(F)F` (single isomer, unassigned) [Example 15], the figures for the EC50 in the assay with LCLC97TM1 (LCLC97TM1), in the assay with ZR-75-1 cells (144 h) and in the assay on MDA-MB-436 cells were 6.28e-07 M, 2.46e-07 M and greater than 2e-05 M, respectively. Also, the results for the IC50 in assay [1] and in assay [2] were 7.55e-08 M and 47.2 nM, respectively.
Consider `CCc1ccc(OC2CCCC2)c(S(=O)(=O)NC(=O)c2cc3c(F)cc(N4CCC4)cc3o2)c1` [Example 3, 6-(Azetidin-1-yl)-N-[2-(cyclopentyloxy)-5-ethylbenzene-1-sulfonyl]-4-fluoro-1-benzofuran-2-carboxamide], for which the EC50 with LCLC97TM1 (setting [3]) was 1.11e-06 M; in the assay with ZR-75-1 cells (Homo sapiens, ZR-75-1, 144 h) it was 2.32e-07 M; in the assay with MDA-MB-436 cells (Homo sapiens), greater than 2e-05 M. Moreover, the IC50 in assay [1] (Homo sapiens, MVLN, 24 h) was found to be 5.25e-08 M; in assay [2], 8.1 nM.
In the same order, the values of `CC(C)Oc1ccccc1S(=O)(=O)NC(=O)c1cc2c(F)cc(N3CC(F)C3)cc2o1` [Example 155, 4-Fluoro-6-(3-fluoroazetidin-1-yl)-N-{2-[(propan-2-yl)oxy]benzene-1-sulfonyl}-1-benzofuran-2-carboxamide] are 4.28e-07 M, 7.48e-08 M, greater than 2e-05 M, 7.14e-08 M and 36.7 nM.
For `CCC(C)Oc1ccc(C)cc1S(=O)(=O)NC(=O)c1cc2c(F)cc(N3CCC3)cc2o1` (stereo not shown) [Example 4, 6-(Azetidin-1-yl)-N-(2-{[butan-2-yl]oxy}-5-methylbenzene-1-sulfonyl)-4-fluoro-1-benzofuran-2-carboxamide], the EC50 is 6.42e-07 M in the assay on LCLC97TM1 (setting [3]); 1.14e-07 M in the assay on ZR-75-1 cells (Homo sapiens, ZR-75-1, 144 h); greater than 2e-05 M with MDA-MB-436 cells (Homo sapiens). In addition, the IC50 in assay [1] (Homo sapiens, MVLN, 24 h) was 6.3e-08 M; in assay [2], 8.72 nM.
For `CCOc1ccc(C(F)(F)F)cc1S(=O)(=O)NC(=O)c1cc2c(F)cc(N3CCC3)cc2o1` [Example 209, 6-(azetidin-1-yl)-N-[2-ethoxy-5-(trifluoromethyl)phenyl]sulfonyl-4-fluoro-benzofuran-2-carboxamide] the same measures were 6.32e-07 M, 4.59e-08 M, greater than 2e-05 M, 5.86e-08 M and 26.5 nM.
Regarding `O=C(NS(=O)(=O)c1ccccc1-c1ccccc1)c1cc2c(F)cc(N3CCC3)cc2o1` [Example 20, Sodium {[6-(azetidin-1-yl)-4-fluoro-1-benzofuran-2-yl]carbonyl}([biphenyl]-2-ylsulfonyl)azanide], the EC50 is 1.42e-06 M with LCLC97TM1 (setting [3]); 2.87e-07 M in the assay with ZR-75-1 cells (Homo sapiens, ZR-75-1, 144 h); greater than 2e-05 M in the assay on MDA-MB-436 cells. Also, the figures for the IC50 in assay [1] and in assay [2] were 3.03e-07 M and 34.2 nM, respectively.
In the case of `O=C(NS(=O)(=O)c1cccc2ccc(Cl)nc12)c1cc2c(F)cc(N3CC(F)C3)cc2o1` [Example 154, N-(2-Chloroquinoline-8-sulfonyl)-4-fluoro-6-(3-fluoroazetidin-1-yl)-1-benzofuran-2-carboxamide], the EC50 was 2.25e-07 M with LCLC97TM1 (setting [3]); 4.95e-08 M with ZR-75-1 cells (Homo sapiens, ZR-75-1, 144 h); greater than 2e-05 M in the assay on MDA-MB-436 cells (Homo sapiens). For the same molecule, the IC50 in assay [1] (Homo sapiens, MVLN, 24 h) turned out to be 7.11e-08 M; in assay [2], 13.4 nM.
Take `CC(C)(C)c1ccc(OCC(F)(F)F)c(S(=O)(=O)NC(=O)c2cc3c(F)cc(N4CCC4)cc3o2)c1` [Example 227, 6-(Azetidin-1-yl)-N-[(5-(tert-butyl)-2-(2,2,2-trifluoroethoxy)phenyl)sulfonyl]-4-fluorobenzofuran-2-carboxamide]: the EC50 with LCLC97TM1 (setting [3]) is 1.22e-07 M; with ZR-75-1 cells (Homo sapiens, ZR-75-1, 144 h), 7.19e-08 M; in the assay with MDA-MB-436 cells (Homo sapiens), greater than 2e-05 M. The IC50 turned out to be 4.82e-08 M in assay [1] (Homo sapiens, MVLN, 24 h) and 5.4 nM in assay [2].
Turning to `CCOc1ccc(C)cc1S(=O)(=O)NC(=O)c1cc2c(F)cc(N3CCC3)cc2o1` [Example 6, 6-(Azetidin-1-yl)-N-(2-ethoxy-5-methylbenzene-1-sulfonyl)-4-fluoro-1-benzofuran-2-carboxamide], the EC50 in the assay on LCLC97TM1 (setting [3]) was 3.12e-07 M; in the assay with ZR-75-1 cells (Homo sapiens, ZR-75-1, 144 h), 3.28e-08 M; in the assay with MDA-MB-436 cells (Homo sapiens), greater than 2e-05 M. In addition, the IC50 was 7.45e-08 M in assay [1] (Homo sapiens, MVLN, 24 h) and 34.9 nM in assay [2].
In the same order, the values of `CCCOc1cccc(OCCC)c1S(=O)(=O)NC(=O)c1cc2c(F)cc(N3CCC3)cc2o1` [Example 17, 6-(Azetidin-1-yl)-N-(2,6-dipropoxybenzene-1-sulfonyl)-4-fluoro-1-benzofuran-2-carboxamide] are 8.49e-07 M, 2.76e-07 M, greater than 2e-05 M, 1.76e-07 M and 4.47 nM.
In the same order, the values of `COc1ccc(C2=CCOCC2)cc1S(=O)(=O)NC(=O)c1cc2c(F)cc(N3CCC3)cc2o1` [Example 196, 6-(azetidin-1-yl)-N-[5-(3,6-dihydro-2H-pyran-4-yl)-2-methoxybenzene-1-sulfonyl]-4-fluoro-1-benzofuran-2-carboxamide] are 8.1e-07 M, 1.44e-07 M, greater than 2e-05 M, 4.72e-08 M and 8.25 nM.
In the same order, the values of `CCOc1ccccc1S(=O)(=O)NC(=O)c1cc2ccc(N3CC(F)(F)C3)cc2o1` [Example 118, 6-(3,3-Difluoroazetidin-1-yl)-N-(2-ethoxybenzene-1-sulfonyl)-1-benzofuran-2-carboxamide] are 2.72e-06 M, 2.46e-06 M, greater than 2e-05 M, 1.2e-06 M and 1990 nM.
On to `COc1cc(C)ccc1S(=O)(=O)NC(=O)c1cc2c(F)cc(N3CCC3)cc2o1` [Example 156, 6-(Azetidin-1-yl)-4-fluoro-N-(2-methoxy-4-methylbenzene-1-sulfonyl)-1-benzofuran-2-carboxamide], for which the EC50 was 6.6e-07 M in the assay with LCLC97TM1 (setting [3]); 1.34e-07 M with ZR-75-1 cells (Homo sapiens, ZR-75-1, 144 h); greater than 2e-05 M with MDA-MB-436 cells (Homo sapiens). For the same molecule, the IC50 in assay [1] (Homo sapiens, MVLN, 24 h) is 7.43e-08 M; in assay [2], 19.9 nM.
In the same order, the values of `CCOc1ccccc1S(=O)(=O)NC(=O)c1cc2ccc(N3CC4(COC4)C3)cc2o1` [Example 125, N-(2-ethoxybenzene-1-sulfonyl)-6-(2-oxa-6-azaspiro[3.3]heptan-6-yl)-1-benzofuran-2-carboxamide] are greater than 2e-05 M, greater than 2e-05 M, greater than 2e-05 M, greater than 2e-05 M and greater than 20000 nM.
